How the values were obtained:
peripheral nerve medulla = settings: cited from earlier work
patient = test: Local anesthesia for clinical surgical operations: composition combined with a local anesthetic and injected locally; type: in vivo, human
Experimental: The above components are injected into 4 ml of 0.375% bupivacaine, and a 0.9% saline solution is added so that the total volume became 8 ml, and then, the composition is subcutaneously injected into both eyebrow regions.
The above components were injected into 30 ml of 1% prilocain hydrochloride according to the ratio, and 0.9% […] was added so that the total volume became 60 ml, and then, the composition was subcutaneously, intramuscularly and subperiosteally injected into the operation site of a patient using a 3 cm needle, and as the result, it was concluded that onset time of anesthesia is shortened to 60 seconds from 5 minutes of the existing case wherein only lidocaine was injected, and the duration of anesthetic action is prolonged from the existing 2 hours to 40 days. […].
The above components were injected into 20 ml of 0.5% procaine, and a 0.9% saline solution was added so that the total volume became 40 ml, and then, the composition was sequentially injected subcutaneously, intramusculary and intraperitoneally along the appendectomy scar of the patient using a 3 cm needle, and as the result, it was concluded that onset time of anesthetic is 60 seconds, and the duration of pain relief continues for 40 days. […]. […]

| SMILES | concentration at which it may directly injure peripheral nerve medulla to cause irreparable nerve injury (peripheral nerve medulla) [%] | duration of anesthetic action / pain relief, existing (patient; existing case, without the composition of the example) [h] | onset time of anesthesia, existing case (patient; only the local anesthetic injected, without the composition) [min] |
| --- | --- | --- | --- |
| CN(C)c1ccc2nc3ccc(=[N+](C)C)cc-3sc2c1 [Methyleneblue] | > 0.03 | – | – |
| CCN(CC)CC(=O)Nc1c(C)cccc1C [lidocaine] | – | 2 | 5 |
